Where a name gives a salt, the structure may show the parent alone.
Legend:
[1] = tested on: bronchoconstrictive response induced by capsaicin; assay: Experimental bronchoconstriction induced by capsaicin in the guinea pig (tidal air variation, Konzett apparatus); assay type: in vivo; conditions: 0.3 nmoles/min i.v., result in words
Protocol: Each groups consisted of eight animals. […] For a total 15 minutes, starting from 5 minutes before capsaicin injection to 10 minutes after) Salbutamol (0.3 nmoles/min), or the corresponding nitrate salt (0.3 nmoles/min) or only the carrier were administered by intravenous infusion were administered to each group. […] The heart frequency was determined by an electrocardiographic device, according to the usual methods.

[2] = tested on: heart frequency; assay: Heart frequency (tachycardia) by electrocardiographic device in the capsaicin bronchoconstriction study; assay type: in vivo; conditions: guinea pig; 0.3 nmoles/min i.v. infusion; heart frequency as percent with respect to the control (carrier 188 ±7 beats per minute = 100); Nitrate Salt
Protocol: Each groups consisted of eight animals. […] For a total 15 minutes, starting from 5 minutes before capsaicin injection to 10 minutes after) Salbutamol (0.3 nmoles/min), or the corresponding nitrate salt (0.3 nmoles/min) or only the carrier were administered by intravenous infusion were administered to each group.
The heart frequency was determined by an electrocardiographic device, according to the usual methods.

[3] = tested on: cough strokes caused by citric acid aerosol; assay: Anti-tussive activity: cough strokes caused by citric acid aerosol in the guinea pig; assay type: in vivo; conditions: 110 micromoles/Kg i.p.; for Antitussive potency compared with the corresponding hydrochlorides: result in words; for cough strokes (%): citric acid 7.5% aerosol, 30 minutes before aerosol, cough strokes over 10 minutes referred to control = 100%
Protocol: Anti-tussive Activity in the Guinea Pig of Dextromethorphan Hydrochloride, Dextromethorphan Nitrate, Dextrorphan Hydrochloride and Dextrorphan Nitrate
Guinea pigs (weight: 430+20) were treated as described by Braga et Al. Arzneim. Forsch./Drug Res. 43, 550, 1993.
In this pharmacological experiment 5 groups of 8 animals each were formed. One group was not treated and was the control group.
Each animal was placed in a cilindrical glass container having one tubing through each of the two circular flat surfaces. Said tubing were, respectively, for the aerosol inlet and outlet. The outlet tubing is connected to a polygraphic system.
The aerosol was formed from a solution 7.5% by weight of citric acid in water.
The air variation inside the glass container was registered before and after a cough stroke caused by the aerosol. One hour later Dextromethorphan hydrochloride, Dextromethorphan nitrate, Dextrorphan hydrochloride and dextrorphan nitrate were i.p. administered in a physiologic solution at a dose of 110 micromoles/Kg. 30 minutes after the injection the animals were treated with the aerosol. It was then registered the number of cough strokes for a time of 10 minutes. In the following Table III are reported the average response obtained from each treated group, referred to that of the control group, made 100%.

[4] = tested on: histamine-induced bronchoconstriction; assay: Antihistaminic activity: experimental bronchoconstriction by histamine in the guinea pig; conditions: result in words
[5] = tested on: phenol red in the tracheal secretion; assay: Mucolitic activity in mice: phenol red in the tracheal secretion; assay type: in vivo
Protocol: Mucolitic Activity in Mice of Ambroxol Nitrate and Ambroxol Hydrochloride
Mucolitic activity in male mice was evaluated according to the Method of Engler and Zselenyi, J. Pharm. Methods 11, 151, 1984. By this method it is determined the quantity of phenol red in the tracheal secretion. The animals were previously administered i.p. at a dose of 500 mg/Kg with the dye dissolved in physiologic solution. 3 groups of mice (weight 18±2 g), of 10 animal each, were treated i.p. with the dye. One group was the control group. Each of the two treated groups received, ten minutes before the above injection, an i.p. injection of 264 micromoles/Kg of Ambroxol nitrate or Ambroxol hydrochloride, respectively. 30 minutes after the phenol red injection, the animals were sacrificed. The trachea was freed from the sorrounding tissues, dissected and washed for 30 minutes in 3 ml of physiologic solution. 0.1 ml of 1 M sodium hydroxyde were then added to the physiologic solution. The washings were centrifuged for 15 minutes at 3000 rpm. A spectrophotometric assay was performed on the supernatant in order to determine the concentration of phenol red in the physiologic solution. Mucolitic activity was determined as % variation of absorbance of the sample in the confront of that of the control group, assumed to be 100%.

For `CC(C)(C)NCC(O)c1ccc(O)c(CO)c1` (centres unmarked) [Salbutamol · HNO3, Salbutamol Nitrate Salt], the “Inhibition of the bronchoconstrictive response induced by capsaicin, compared with Salbutamol” value [1] was “as effective as Salbutamol” and the “Tachycardia (%)” value [2] was 97%.
For `COc1ccc2c(c1)[C@@]13CCCC[C@H]1[C@@H](C2)N(C)CC3` [Dextromethorphan nitrate, Dextromethorphan Nitrate Salt], the “Antitussive potency compared with the corresponding hydrochlorides” value [3] was “more potent antitussive agents than the corresponding hydrochlorides” and the “cough strokes (%)” value ([3]; Nitrate Salt) was 0%.
`CN1CC[C@]23CCCC[C@H]2[C@H]1Cc1ccc(O)cc13` [Dextrorphan hydrochloride, reference compound] was tested, and the “cough strokes (%)” value ([3]; hydrochloride) was 40%.
`O=C(O)COCCN1CCN(C(c2ccccc2)c2ccc(Cl)cc2)CC1` (centres unmarked) [Cetirizine nitrate, Cetirizine Nitrate Salt] was tested, and the “Antihistamine activity compared with Cetirizine hydrochloride” value [4] was “improved antihistamine activity”.
For `COc1ccc2c(c1)[C@@]13CCCC[C@H]1[C@@H](C2)N(C)CC3` [Dextromethorphan hydrochloride, reference compound], the “cough strokes (%)” value ([3]; hydrochloride) was 30%.
`CN1CC[C@]23CCCC[C@H]2[C@H]1Cc1ccc(O)cc13` [Dextrorphan nitrate, Dextrorphan Nitrate Salt] was tested, and the “Antitussive potency compared with the corresponding hydrochlorides” value [3] was “more potent antitussive agents than the corresponding hydrochlorides” and the “cough strokes (%)” value ([3]; Nitrate Salt) was 0%.
With `Nc1c(Br)cc(Br)cc1CNC1CCC(O)CC1` (centres unmarked) [Ambroxol hydrochloride, reference compound] the “Mucolitic activity (%)” value ([5]; male mice, 264 micromoles/Kg i.p. ten minutes before phenol red 500 mg/Kg i.p., % variation of absorbance versus control group = 100%, hydrochloride) was 30%.
With `Nc1c(Br)cc(Br)cc1CNC1CCC(O)CC1` (centres unmarked) [Ambroxol nitrate, Ambroxol Nitrate Salt] the “Mucolitic activity compared with the corresponding hydrochloride” value ([5]; mice, 264 micromoles/Kg i.p., result in words) was “higher than that of the corresponding hydrochloride”.

Source: patent publication US6828342B2, “Nitric esters and nitrate salts of specific drugs” (priority 1999, dated 2004)
